Results published in patent US20240016834A1, “ANTIMICROBIAL AGENT COMPOSITION AND MANUFACTURING METHOD AND PRODUCT THEREOF” (priority 2020, published 2024).

Columns and labels:
[1] = tested on: Infectious bronchitis (corona virus); test: Administration test to broiler chicken 2 (farm); type: in vivo, broiler chicken (Ross); settings: antibiotic administered before the Impact treatment
Description: In the second test, referring to <Table 3> in the below, infectious bronchitis (corona virus) occurred among 24,000 of Ross breeds at the age of 20 days at the broiler chicken consignment farm mentioned above. […] For the test, the product of the present invention was fed at the recommended dosage and was administered in the same way for 3 days.

[2] = tested on: Escherichia coli (E. coli) ATCC 8739; test: In vitro antibacterial power test (KFDA guidelines for external disinfectants), 5 minutes contact; type: cell-based; settings: inoculum 1.3 × 10^3 CFU/mL
Description: (§1) The <Table 1> below is based on the official test report of a test that was requested to and performed by the Korea Analytical Testing Research Institute as a test institution. […] In this case, an inhibition rate (%) of the test result is as follows: Inhibition Rate (%)=(Number of Bacteria in Control Group−Number of Bacteria in Sample Group)/Number of Bacteria in Control Group.

[3] = tested on: Salmonella Typhimurium ATCC 14028; test: as above; type: cell-based; settings: inoculum 1.1 × 10^3 CFU/mL
Description: as §1

[4] = tested on: Staphylococcus aureus ATCC 6538; test: as above; type: cell-based; settings: inoculum 1.0 × 10^3 CFU/mL
Description: as §1

## CC1(C)S[C@@H]2[C@H](NC(=O)[C@H](N)c3ccccc3)C(=O)N2[C@H]1C(=O)O [Ampicillin 100, ampicillin]
[1]
  respiratory symptoms: symptoms persisted.
[2]
  Inhibition rate (%) of number of viable cells after 5 minutes [Antibacterial power]: (99.9%)
[3]
  Inhibition rate (%) of number of viable cells after 5 minutes [Antibacterial power]: (98.6%)
[3]; control group 1.6 × 10^3
  number of viable cells after 5 minutes: 2.1 × 10^1 CFU/mL
[4]
  Inhibition rate (%) of number of viable cells after 5 minutes [Antibacterial power]: (94.6%)
[4]; control group 1.5 × 10^3
  number of viable cells after 5 minutes: 8.1 × 10^1 CFU/mL
